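Growth conditions: 96-well plates. Treatment: test compound, 48 hours, 5 concentrations. Analysis: linear interpolation between bracketing concentrations; unreached endpoints set to highest concentration. TGI: concentration producing complete growth inhibition.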
Legend:
Assay in all cases: NCI tumour cell line growth inhibition, 48 h
786-0 renal = system: 786-0 renal
A498 renal = system: A498 renal
A549 NSCLC = system: A549 NSCLC
ACHN renal = system: ACHN renal
BT-549 breast = system: BT-549 breast
CAKI-1 renal = system: CAKI-1 renal
CCRF-CEM leukemia = system: CCRF-CEM leukemia
COLO 205 colon = system: COLO 205 colon
DU-145 prostate = system: DU-145 prostate
EKVX NSCLC = system: EKVX NSCLC
HCT-116 colon = system: HCT-116 colon
HCT-15 colon = system: HCT-15 colon
HL-60(TB) leukemia = system: HL-60(TB) leukemia
HOP-62 NSCLC = system: HOP-62 NSCLC
HOP-92 NSCLC = system: HOP-92 NSCLC
HS 578T breast = system: HS 578T breast
HT29 colon = system: HT29 colon
IGROV1 ovarian = system: IGROV1 ovarian
K-562 leukemia = system: K-562 leukemia
KM12 colon = system: KM12 colon
LOX IMVI melanoma = system: LOX IMVI melanoma
M14 melanoma = system: M14 melanoma
MALME-3M melanoma = system: MALME-3M melanoma
MCF7 breast = system: MCF7 breast
MDA-MB-231 breast = system: MDA-MB-231 breast
MDA-MB-435 = system: MDA-MB-435
MDA-N = system: MDA-N
MOLT-4 leukemia = system: MOLT-4 leukemia
NCI-H226 lung = system: NCI-H226 lung
NCI-H23 lung = system: NCI-H23 lung
NCI-H460 lung = system: NCI-H460 lung
NCI-H522 lung = system: NCI-H522 lung
NCI/ADR-RES ovarian = system: NCI/ADR-RES ovarian
OVCAR-3 ovarian = system: OVCAR-3 ovarian
OVCAR-4 ovarian = system: OVCAR-4 ovarian
OVCAR-5 ovarian = system: OVCAR-5 ovarian
OVCAR-8 ovarian = system: OVCAR-8 ovarian
PC-3 prostate = system: PC-3 prostate
RPMI-8226 leukemia = system: RPMI-8226 leukemia
RXF 393 renal = system: RXF 393 renal
SF-268 CNS = system: SF-268 CNS
SF-295 CNS = system: SF-295 CNS
SK-MEL-2 melanoma = system: SK-MEL-2 melanoma
SK-MEL-28 melanoma = system: SK-MEL-28 melanoma
SK-MEL-5 melanoma = system: SK-MEL-5 melanoma
SK-OV-3 ovarian = system: SK-OV-3 ovarian
SN12C renal = system: SN12C renal
SNB-19 CNS = system: SNB-19 CNS
SNB-75 CNS = system: SNB-75 CNS
SR leukemia = system: SR leukemia
SW-620 colon = system: SW-620 colon
T-47D breast = system: T-47D breast
TK-10 renal = system: TK-10 renal
U251 CNS = system: U251 CNS
UACC-257 melanoma = system: UACC-257 melanoma
UACC-62 melanoma = system: UACC-62 melanoma
UO-31 renal = system: UO-31 renal
HCC-2998 colon = system: HCC-2998 colon
SF-539 CNS = system: SF-539 CNS

Measured: TGI

NCC(O)CSP(=O)(O)O (stereo not drawn)
not listed: HCC-2998 colon | SF-539 CNS
> 100 µM: all other assays above

C=CCCC1CCCCNC1=S (stereo not drawn)
not listed: HOP-92 NSCLC | NCI-H522 lung | SNB-75 CNS
> 10 µM: all other assays above

Source: PubChem BioAssay (NCI)
